For one assay, the target named is SHP2 (Homo sapiens (Human), UniProt Q06124). The experiment in a line: SHP2 Biochemical Assay (DiFMUP conversion, pIRS1-activated). The method, boiled down:
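Human SHP2 (10 pM) pre-incubated 30 min with compound and […] pIRS1 activating peptide, then 50 μM DiFMUP added; buffer 25 mM Bis-Tris propane pH 7.0, 150 mM NaCl, 5% DMSO. Fluorescence rate (ex 360/em 450 nm) over 30 min; IC50 by four-parameter fit, averaged across experiments.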

The subject of assay [1] is pERK (phospho-p44/42 ERK) in HCC827 cells. Put plainly: Cellular pERK Inhibition Assay, Method A (In-Cell Western). The conditions noted are these: Homo sapiens. Type of assay: cell-based. The essentials:
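HCC827 cells in RPMI/10% FBS were treated with compounds in serum-free medium (0.2% DMSO final) at 37 °C for the indicated time, in quadruplicate. Fixed cells were immunostained for phospho-p44/42 ERK and read by infrared imaging. Blank-subtracted signal was expressed as % of DMSO control; IC50 from four-parameter logistic fit, averaged across experiments.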

Setting [2] is: Table 19, head prints unit as "-M".
Setting [3] is: Table 19, head prints unit as "-M", read-out: pERK (IC50) Method A.
The mark [4] stands for this setting: Table 20, read-out: pERK (IC50, μM) Method A.

Like-named read-outs stand apart in the source and are kept apart here.

For orientation: IC50 means the concentration that inhibits the measured activity by half.

Chain of SHP2 (Q06124 whole entry): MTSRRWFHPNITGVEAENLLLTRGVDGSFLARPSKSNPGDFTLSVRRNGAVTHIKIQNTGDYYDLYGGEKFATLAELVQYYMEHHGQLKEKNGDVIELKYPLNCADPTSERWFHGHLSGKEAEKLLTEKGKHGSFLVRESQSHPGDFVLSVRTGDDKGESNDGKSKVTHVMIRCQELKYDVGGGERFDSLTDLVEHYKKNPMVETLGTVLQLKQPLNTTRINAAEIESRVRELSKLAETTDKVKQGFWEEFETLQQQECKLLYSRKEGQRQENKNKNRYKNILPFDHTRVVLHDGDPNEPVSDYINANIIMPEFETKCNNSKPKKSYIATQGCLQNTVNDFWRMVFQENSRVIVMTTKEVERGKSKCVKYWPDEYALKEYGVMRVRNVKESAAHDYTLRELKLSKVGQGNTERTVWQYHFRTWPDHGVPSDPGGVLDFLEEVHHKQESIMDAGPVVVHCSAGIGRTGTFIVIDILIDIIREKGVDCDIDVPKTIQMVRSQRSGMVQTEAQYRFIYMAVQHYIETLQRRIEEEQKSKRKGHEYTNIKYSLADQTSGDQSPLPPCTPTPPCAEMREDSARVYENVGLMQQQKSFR

Consider `CCn1cc2c(Cl)c(-c3n[nH]c4nc(N5[C@H]6CC[C@@H]5[C@H](NC)C6)n(C)c(=O)c34)ccc2n1` [Example 118, 3-(4-chloro-2-ethyl-2H-indazol-5-yl)-5-methyl-6-((1R,2R,4S)-2-(methylamino)-7-azabicyclo[2.2.1]heptan-7-yl)-1,5-dihydro-4H-pyrazolo[3,4-d]pyrimidin-4-one], for which the concentration for half-maximal inhibition (IC50) against SHP2 (setting [2]) is 49 nM; in assay [1] (setting [3]), 1.1 µM.

For the molecule `C[C@@H]1CNCCN1c1nc2[nH]cc(-c3ccc4nn(C)cc4c3Cl)c2c(=O)n1C` [Example 47, (R)-5-(4-chloro-2-methyl-2H-indazol-5-yl)-3-methyl-2-(2-methylpiperazin-1-yl)-3,7-dihydro-4H-pyrrolo[2,3-d]pyrimidin-4-one], the concentration for half-maximal inhibition (IC50) at SHP2 (setting [2]) was found to be 32 nM; in assay [1] (setting [3]) it was 0.38 µM.

With `Cn1cc2c(Cl)c(-c3c[nH]c4nc(N5C6CCC5CNC6)n(C)c(=O)c34)ccc2n1` [Example 1, 2-(3,8-diazabicyclo[3.2.1]octan-8-yl)-5-(4-chloro-2-methyl-2H-indazol-5-yl)-3-methyl-3,7-dihydro-4H-pyrrolo[2,3-d]pyrimidin-4-one], the half-inhibitory concentration (IC50) is 14 nM against SHP2 (setting [2]) and 0.14 µM in assay [1] (setting [3]).

`Cn1cc2c(Cl)c(-c3c[nH]c4nc(N5[C@H]6CC[C@@H]5[C@@H](F)[C@H](N)C6)n(C)c(=O)c34)ccc2n1` [Example 129, 2-((1R,2S,3R,5S)-3-amino-2-fluoro-8-azabicyclo[3.2.1]octan-8-yl)-5-(4-chloro-2-methyl-2H-indazol-5-yl)-3-methyl-3,7-dihydro-4H-pyrrolo[2,3-d]pyrimidin-4-one]: the half-maximal inhibitory concentration (IC50) on SHP2 (setting [2]) turned out to be 69 nM; in assay [1] (setting [3]) it was 0.98 µM.

On to `Cn1cc2c(Cl)c(-c3c[nH]c4nc(N5[C@@H]6CCC[C@H]5C[C@H](N)C6)n(C)c(=O)c34)ccc2n1` [Example 36, 2-(exo-3-amino-9-azabicyclo[3.3.1]nonan-9-yl)-5-(4-chloro-2-methyl-2H-indazol-5-yl)-3-methyl-3,7-dihydro-4H-pyrrolo[2,3-d]pyrimidin-4-one], for which the IC50 against SHP2 (setting [2]) worked out at 5.5 nM; in assay [1] (setting [3]), 0.35 µM.

Turning to `CN[C@@H]1C[C@@H]2CC[C@H]1N2c1nc2[nH]nc(-c3ccc4nn(C)c(Cl)c4c3F)c2c(=O)n1C` [Example 121, 3-(3-chloro-4-fluoro-2-methyl-2H-indazol-5-yl)-5-methyl-6-((1R,2R,4S)-2-(methylamino)-7-azabicyclo[2.2.1]heptan-7-yl)-1,5-dihydro-4H-pyrazolo[3,4-d]pyrimidin-4-one], the figures for the 50% inhibitory concentration (IC50) (on SHP2 (setting [2]); in assay [1] (setting [3])) were 16 nM and 0.21 µM, respectively.

`Cn1c(N2[C@@H]3CC[C@H]2C[C@@H](N)C3)nc2[nH]cc(-c3ccc4[nH]ncc4c3Cl)c2c1=O` [Example 77]: the results for the half-maximal inhibitory concentration (IC50) (against SHP2 (setting [2]); in assay [1] (setting [3])) were 40 nM and 1.9 µM, respectively.

For the molecule `CN[C@@H]1C[C@@H]2CC[C@H]1N2c1nc2[nH]cc(-c3ccc4nc(C)sc4c3Cl)c2c(=O)n1C` [Example 107, 5-(7-chloro-2-methylbenzo[d]thiazol-6-yl)-3-methyl-2-((1R,2R,4S)-2-(methylamino)-7-azabicyclo[2.2.1]heptan-7-yl)-3,7-dihydro-4H-pyrrolo[2,3-d]pyrimidin-4-one], the values for the 50% inhibitory concentration (IC50) (against SHP2 (setting [2]); in assay [1] (setting [3])) were 7 nM and 0.27 µM, respectively.

Take `Cn1cc2c(Cl)c(-c3c[nH]c4nc(N5[C@H]6CC[C@@H]5[C@H](F)[C@H](N)C6)n(C)c(=O)c34)ccc2n1` [Example 131, 2-((1R,2R,3R,5S)-3-amino-2-fluoro-8-azabicyclo[3.2.1]octan-8-yl)-5-(4-chloro-2-methyl-2H-indazol-5-yl)-3-methyl-3,7-dihydro-4H-pyrrolo[2,3-d]pyrimidin-4-one]: the values for the IC50 (against SHP2 (setting [2]); in assay [1] (setting [3])) were 28 nM and 0.46 µM, respectively.

On to `CN[C@H]1C[C@H]2CC[C@@H]1N2c1nc2[nH]cc(-c3ccc4nn(C)cc4c3Cl)c2c(=O)n1C` [Example 165, 5-(4-chloro-2-methyl-2H-indazol-5-yl)-3-methyl-2-((1S,2S,4R)-2-(methylamino)-7-azabicyclo[2.2.1]heptan-7-yl)-3,7-dihydro-4H-pyrrolo[2,3-d]pyrimidin-4-one], for which the results for the IC50 (at SHP2 (Table 20); in assay [1] (setting [4])) were 84 nM and 1.4 µM, respectively.

Take `Cn1c(N2[C@@H]3CC[C@H]2C[C@@H](N)C3)nc2[nH]cc(-c3ccc4nnn(C)c4c3Cl)c2c1=O` [Example 74, 2-(endo-3-amino-8-azabicyclo[3.2.1]octan-8-yl)-5-(7-chloro-1-methyl-1H-benzo[d][1,2,3]triazol-6-yl)-3-methyl-3,7-dihydro-4H-pyrrolo[2,3-d]pyrimidin-4-one]: the 50% inhibitory concentration (IC50) against SHP2 (setting [2]) was 170 nM; in assay [1] (setting [3]) it was 5.4 µM.

`CN[C@H]1C[C@H]2CC[C@@H](C1)N2c1nc2[nH]cc(-c3ccc4nn(C)cc4c3Cl)c2c(=O)n1C` [Example 14, 5-(4-chloro-2-methyl-2H-indazol-5-yl)-3-methyl-2-(endo-3-(methylamino)-8-azabicyclo[3.2.1]octan-8-yl)-3,7-dihydro-4H-pyrrolo[2,3-d]pyrimidin-4-one]: the concentration for half-maximal inhibition (IC50) on SHP2 (setting [2]) came to 24 nM; in assay [1] (setting [3]) it was 0.31 µM.

Consider `Cn1cc2c(Cl)c(-c3c[nH]c4nc(N5C[C@@H](N)[C@@H](F)C5)n(C)c(=O)c34)ccc2n1` [Example 50, 2-((3R,4S)-3-amino-4-fluoropyrrolidin-1-yl)-5-(4-chloro-2-methyl-2H-indazol-5-yl)-3-methyl-3,7-dihydro-4H-pyrrolo[2,3-d]pyrimidin-4-one], for which the figures for the 50% inhibitory concentration (IC50) (on SHP2 (setting [2]); in assay [1] (setting [3])) were 250 nM and 4.7 µM, respectively.

For the molecule `Cn1nc2ccc(-c3n[nH]c4nc(N5C6CCCC5CNC6)n(C)c(=O)c34)c(Cl)c2c1Cl` [Example 116, 6-(3,9-diazabicyclo[3.3.1]nonan-9-yl)-3-(3,4-dichloro-2-methyl-2H-indazol-5-yl)-5-methyl-1,5-dihydro-4H-pyrazolo[3,4-d]pyrimidin-4-one], the IC50 against SHP2 (setting [2]) came out at 9 nM; in assay [1] (setting [3]), 0.1 µM.

As to `Cn1cc2c(Cl)c(-c3c[nH]c4nc(N5C6CNCC5COC6)n(C)c(=O)c34)ccc2n1` [Example 85, 2-(3-oxa-7,9-diazabicyclo[3.3.1]nonan-9-yl)-5-(4-chloro-2-methyl-2H-indazol-5-yl)-3-methyl-3,7-dihydro-4H-pyrrolo[2,3-d]pyrimidin-4-one], the results for the IC50 (at SHP2 (setting [2]); in assay [1] (setting [3])) were 13 nM and 0.64 µM, respectively.

As to `COC1(CN)CCN(c2nc3[nH]cc(-c4ccc5nn(C)cc5c4Cl)c3c(=O)n2C)CC1` [Example 64, 2-(4-(aminomethyl)-4-methoxypiperidin-1-yl)-5-(4-chloro-2-methyl-2H-indazol-5-yl)-3-methyl-3,7-dihydro-4H-pyrrolo[2,3-d]pyrimidin-4-one], the results for the concentration for half-maximal inhibition (IC50) (at SHP2 (setting [2]); in assay [1] (setting [3])) were 42 nM and 1.5 µM, respectively.

As for `CN(C)c1cnc2ccc(-c3c[nH]c4nc(N5[C@H]6CC[C@@H]5[C@H](N)C6)n(C)c(=O)c34)c(Cl)c2n1` [Example 170, 2-((1R,2R,4S)-2-amino-7-azabicyclo[2.2.1]heptan-7-yl)-5-(5-chloro-3-(dimethylamino)quinoxalin-6-yl)-3-methyl-3,7-dihydro-4H-pyrrolo[2,3-d]pyrimidin-4-one], the IC50 amounted to 3 nM at SHP2 (Table 20) and 0.016 µM in assay [1] (setting [4]).

`Cn1cc2c(Cl)c(-c3n[nH]c4nc(N5C6CCCC5CNC6)n(C)c(=O)c34)ccc2n1` [Example 117, 6-(3,9-diazabicyclo[3.3.1]nonan-9-yl)-3-(4-chloro-2-methyl-2H-indazol-5-yl)-5-methyl-1,5-dihydro-4H-pyrazolo[3,4-d]pyrimidin-4-one]: the IC50 against SHP2 (setting [2]) is 25 nM; in assay [1] (setting [3]), 0.64 µM.

For the origin of these results see patent US12037345B2, “Heterobicyclic compounds for inhibiting the activity of SHP2” (TAIHO PHARMACEUTICAL CO., LTD., priority 2018, dated 2024).
